Experimental data as given in patent publication US11819257B2, “Compositions, treatment systems and methods for improved cooling of lipid-rich tissue” (Zeltiq Aesthetics, Inc., priority 2014, dated 2023).

Test system: skin at abdominal treatment sites
Assay: Clinical detection of freeze events during abdominal CoolSculpting cooling treatment after pre-treatment with cryoprotectant and mechanical stimulation
Type: in vivo, human
Details: patients, 14 total cycles at −15° C. applicator set point, 60 minute cycle, 3 cc topical, brushed for 2 minutes before cooling
Description: This section describes an example of the clinical use of pre-treating the skin of a patient at a treatment site with mechanical stimulation in the presence of topically applied cryoprotectant prior to applying cooling treatment for affecting subcutaneous lipid-rich cells. Additional embodiments of the present technology may be practiced with features similar to or different than those described with respect to this example. Among other features of the present technology, this example illustrates that mechanical stimulation in the presence of cryoprotectant prior to cooling treatment may have utility in the prevention of freezing events or damage when cooling subcutaneous lipid-rich tissue for aesthetic or health-related reasons. Thirteen patients scheduled for abdominoplasty where offered to undergo a CoolSculpting® treatment on abdominal treatment sites. Each patient underwent two CoolSculpting® treatment sessions having a 60 minute cycle time and a −15° C. applicator temperature set point. The vacuum was set at 60 per typical recommended settings and a standard CoolSculpting® gel pad and liner were used per instructions. Six patients were assigned to a control group and had no pre-treatment performed prior to the CoolSculpting® treatment. […] Freeze events were detected using a freeze detection algorithm such as that described in U.S. Pat. No. 8,285,390.

## CC(O)CO (centres unmarked) [100% PG, propylene glycol]
  Probability of Freeze Event: 0%
Freeze detection algorithm
  Freeze Events: 0
